Assay [1] concerns the target Phosphatidylinositol 4-phosphate 5-kinase type-1 alpha (Homo sapiens) (UniProt Q99755). The experiment in a line: Inhibition of T7 bacteriophage fused human PIP5K1A at 10 uM by KINOMEscan analysis relative to control.
The test system of assay [2] is Receptor-type tyrosine-protein kinase FLT3 (Homo sapiens), P36888 [N841I]. The experiment in a line: Inhibition of T7 bacteriophage fused human FLT3 N841I mutant at 10 uM by KINOMEscan analysis relative to control; values are per cent of control.
For assay [3], the target named is Serine/threonine-protein kinase 10 (Homo sapiens) (UniProt O94804). The assay can be described thus: Inhibition of T7 bacteriophage fused human LOK at 10 uM by KINOMEscan analysis relative to control.
For assay [4], the target named is Death-associated protein kinase 3 (Homo sapiens) (UniProt O43293). The experiment in a line: Inhibition of T7 bacteriophage fused human DAPK3 at 10 uM by KINOMEscan analysis relative to control; values are per cent of control.
Assay [5] deals with Serine/threonine-protein kinase PAK 1 (Homo sapiens) (UniProt Q13153). The assay can be described thus: Inhibition of T7 bacteriophage fused human PAK1 at 10 uM by KINOMEscan analysis relative to control.
The target of assay [6] is Tyrosine-protein kinase FRK (Homo sapiens) (UniProt P42685). The assay can be described thus: Inhibition of T7 bacteriophage fused human FRK at 10 uM by KINOMEscan analysis relative to control; values are per cent of control.
The subject of assay [7] is Epidermal growth factor receptor (Homo sapiens), P00533 [UNDEFINED MUTATION]. The experiment in a line: Inhibition of T7 bacteriophage fused human EGFR L747/E749del/A750P mutant at 10 uM by KINOMEscan analysis relative to control; values are per cent of control.
The target of assay [8] is Mitogen-activated protein kinase 4 (Homo sapiens) (UniProt P31152). The assay can be described thus: Inhibition of T7 bacteriophage fused human ERK4 at 10 uM by KINOMEscan analysis relative to control.
The target of assay [9] is Mitogen-activated protein kinase kinase kinase kinase 1 (Homo sapiens) (UniProt Q92918). The assay can be described thus: Inhibition of T7 bacteriophage fused human HPK1 at 10 uM by KINOMEscan analysis relative to control.
Sequence of Mitogen-activated protein kinase kinase kinase kinase 1 (Homo sapiens) (Q92918 whole entry, looked up, the tested form may be a part, canonical isoform): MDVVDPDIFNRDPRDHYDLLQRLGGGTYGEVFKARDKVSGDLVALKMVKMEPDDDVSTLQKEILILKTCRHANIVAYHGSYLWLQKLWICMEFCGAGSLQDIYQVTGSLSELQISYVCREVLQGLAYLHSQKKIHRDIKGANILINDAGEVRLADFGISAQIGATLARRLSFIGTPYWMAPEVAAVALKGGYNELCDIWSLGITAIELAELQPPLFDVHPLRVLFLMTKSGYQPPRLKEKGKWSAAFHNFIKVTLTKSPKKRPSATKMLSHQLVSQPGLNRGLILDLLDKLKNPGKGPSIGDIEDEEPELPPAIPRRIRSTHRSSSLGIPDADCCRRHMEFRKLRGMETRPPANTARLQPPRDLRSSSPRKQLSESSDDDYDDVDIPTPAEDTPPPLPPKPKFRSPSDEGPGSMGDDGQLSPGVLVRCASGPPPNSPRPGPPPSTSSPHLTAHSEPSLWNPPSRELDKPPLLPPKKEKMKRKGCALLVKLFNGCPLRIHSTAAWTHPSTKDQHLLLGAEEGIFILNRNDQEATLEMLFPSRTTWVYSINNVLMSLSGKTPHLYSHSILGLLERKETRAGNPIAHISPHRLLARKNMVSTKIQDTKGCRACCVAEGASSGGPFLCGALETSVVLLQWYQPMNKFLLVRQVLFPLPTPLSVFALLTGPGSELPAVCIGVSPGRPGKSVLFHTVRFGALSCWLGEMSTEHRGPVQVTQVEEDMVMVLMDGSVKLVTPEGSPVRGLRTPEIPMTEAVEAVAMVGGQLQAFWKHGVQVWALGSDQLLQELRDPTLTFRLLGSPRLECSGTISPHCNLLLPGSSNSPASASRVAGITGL
Assay [10] deals with Phosphatidylinositol 4,5-bisphosphate 3-kinase catalytic subunit alpha isoform (Homo sapiens), P42336 [I800L]. The experiment in a line: Inhibition of T7 bacteriophage fused human PIK3CA I800L mutant at 10 uM by KINOMEscan analysis relative to control.
For assay [11], the target named is Hepatocyte growth factor receptor (Homo sapiens) (UniProt P08581). The assay can be described thus: Inhibition of T7 bacteriophage fused human MET at 10 uM by KINOMEscan analysis relative to control.
The target of assay [12] is Mitogen-activated protein kinase 6 (Homo sapiens) (UniProt Q16659). The experiment in a line: Inhibition of T7 bacteriophage fused human ERK3 at 10 uM by KINOMEscan analysis relative to control.
The target of assay [13] is Mitogen-activated protein kinase kinase kinase 15 (Homo sapiens) (UniProt Q6ZN16). The experiment in a line: Inhibition of T7 bacteriophage fused human MAP3K15 at 10 uM by KINOMEscan analysis relative to control; values are per cent of control.
The target in assay [14] is Dual specificity mitogen-activated protein kinase kinase 5 (Homo sapiens) (UniProt Q13163). The assay can be described thus: Inhibition of T7 bacteriophage fused human MEK5 at 10 uM by KINOMEscan analysis relative to control; values are per cent of control.
Sequence of Dual specificity mitogen-activated protein kinase kinase 5 (Homo sapiens) (Q13163 whole entry, the tested form may be a part): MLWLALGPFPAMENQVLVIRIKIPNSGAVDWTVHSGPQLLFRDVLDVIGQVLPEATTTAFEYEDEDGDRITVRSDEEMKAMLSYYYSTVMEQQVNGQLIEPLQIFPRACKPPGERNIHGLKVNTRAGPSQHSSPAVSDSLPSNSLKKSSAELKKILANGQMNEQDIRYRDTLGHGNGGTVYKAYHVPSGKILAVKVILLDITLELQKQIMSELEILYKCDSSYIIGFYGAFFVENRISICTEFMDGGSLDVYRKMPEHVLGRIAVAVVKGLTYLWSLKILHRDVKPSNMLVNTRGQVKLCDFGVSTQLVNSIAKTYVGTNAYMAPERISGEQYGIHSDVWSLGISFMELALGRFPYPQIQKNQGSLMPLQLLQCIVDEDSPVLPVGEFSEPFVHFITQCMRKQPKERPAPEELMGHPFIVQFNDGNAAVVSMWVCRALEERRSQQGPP
In assay [15] the target is Cyclin-dependent kinase 13 (Homo sapiens) (UniProt Q14004). The assay can be described thus: Inhibition of T7 bacteriophage fused human CDC2L5 at 10 uM by KINOMEscan analysis relative to control.
Assay [16] deals with Rhodopsin kinase GRK7 (Homo sapiens) (UniProt Q8WTQ7). The experiment in a line: Inhibition of T7 bacteriophage fused human GRK7 at 10 uM by KINOMEscan analysis relative to control.
Sequence of Rhodopsin kinase GRK7 (Homo sapiens) (Q8WTQ7 whole entry, the tested form may be a part): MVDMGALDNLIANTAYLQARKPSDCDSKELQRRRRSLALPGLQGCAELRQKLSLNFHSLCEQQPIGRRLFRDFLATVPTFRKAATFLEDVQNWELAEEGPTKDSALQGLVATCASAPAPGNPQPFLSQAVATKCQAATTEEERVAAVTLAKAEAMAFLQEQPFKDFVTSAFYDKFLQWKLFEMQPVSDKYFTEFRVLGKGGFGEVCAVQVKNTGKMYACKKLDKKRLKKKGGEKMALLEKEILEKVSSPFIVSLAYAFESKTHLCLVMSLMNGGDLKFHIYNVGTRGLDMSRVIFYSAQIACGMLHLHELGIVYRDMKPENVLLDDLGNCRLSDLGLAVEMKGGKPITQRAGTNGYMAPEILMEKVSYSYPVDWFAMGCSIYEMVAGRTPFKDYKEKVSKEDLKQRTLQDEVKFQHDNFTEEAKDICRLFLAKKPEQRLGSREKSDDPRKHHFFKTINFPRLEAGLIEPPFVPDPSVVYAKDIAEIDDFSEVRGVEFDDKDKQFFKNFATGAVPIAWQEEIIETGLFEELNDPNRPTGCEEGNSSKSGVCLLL
The target of assay [17] is Atypical kinase COQ8B, mitochondrial (Homo sapiens) (UniProt Q96D53). The experiment in a line: Inhibition of T7 bacteriophage fused human ADCK4 at 10 uM by KINOMEscan analysis relative to control.
Sequence of Atypical kinase COQ8B, mitochondrial (Homo sapiens) (Q96D53 whole entry, the tested form may be a part): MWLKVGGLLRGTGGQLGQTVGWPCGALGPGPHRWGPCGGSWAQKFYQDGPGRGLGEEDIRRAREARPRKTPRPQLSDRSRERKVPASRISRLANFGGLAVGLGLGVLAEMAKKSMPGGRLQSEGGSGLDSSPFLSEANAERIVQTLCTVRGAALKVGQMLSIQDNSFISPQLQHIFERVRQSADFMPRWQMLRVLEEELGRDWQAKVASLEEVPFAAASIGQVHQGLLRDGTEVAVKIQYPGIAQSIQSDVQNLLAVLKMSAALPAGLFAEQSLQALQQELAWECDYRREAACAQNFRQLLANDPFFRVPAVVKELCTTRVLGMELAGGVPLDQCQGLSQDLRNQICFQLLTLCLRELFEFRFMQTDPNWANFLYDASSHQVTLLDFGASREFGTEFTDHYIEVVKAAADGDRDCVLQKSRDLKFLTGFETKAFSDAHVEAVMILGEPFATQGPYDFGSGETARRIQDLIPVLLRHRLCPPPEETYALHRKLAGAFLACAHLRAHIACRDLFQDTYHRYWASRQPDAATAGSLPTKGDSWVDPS
The target of assay [18] is Tyrosine-protein kinase Fyn (Homo sapiens) (UniProt P06241). The assay can be described thus: Inhibition of T7 bacteriophage fused human FYN at 10 uM by KINOMEscan analysis relative to control.
Assay [19] concerns the target Casein kinase II subunit alpha (Homo sapiens) (UniProt P68400). The assay can be described thus: Inhibition of T7 bacteriophage fused human CSNK2A1 at 10 uM by KINOMEscan analysis relative to control.
Assay [20] deals with Hepatocyte growth factor receptor (Homo sapiens), P08581 [Y1235D]. The experiment in a line: Inhibition of T7 bacteriophage fused human MET Y1235D mutant at 10 uM by KINOMEscan analysis relative to control.
Assay [21] concerns the target Serine/threonine-protein kinase Nek1 (Homo sapiens) (UniProt Q96PY6). The assay can be described thus: Inhibition of T7 bacteriophage fused human NEK1 at 10 uM by KINOMEscan analysis relative to control; values are per cent of control.
Assay [22] has as its system Tyrosine-protein kinase ABL1 (Homo sapiens), P00519 [T315I]. The experiment in a line: Inhibition of T7 bacteriophage fused human nonphosphorylated ABL1 T315I mutant at 10 uM by KINOMEscan analysis relative to control.
Assay [23] relates to Fibroblast growth factor receptor 3 (Homo sapiens), P22607 [G697C]. The assay can be described thus: Inhibition of T7 bacteriophage fused human FGFR3 G697C mutant at 10 uM by KINOMEscan analysis relative to control.
The target in assay [24] is Glycogen synthase kinase-3 alpha (Homo sapiens) (UniProt P49840). The experiment in a line: Inhibition of T7 bacteriophage fused human GSK3A at 10 uM by KINOMEscan analysis relative to control.
In assay [25] the target is Receptor tyrosine-protein kinase erbB-4 (Homo sapiens) (UniProt Q15303). The assay can be described thus: Inhibition of T7 bacteriophage fused human ERBB4 at 10 uM by KINOMEscan analysis relative to control.
Sequence of Receptor tyrosine-protein kinase erbB-4 (Homo sapiens) (Q15303 whole entry, the tested form may be a part): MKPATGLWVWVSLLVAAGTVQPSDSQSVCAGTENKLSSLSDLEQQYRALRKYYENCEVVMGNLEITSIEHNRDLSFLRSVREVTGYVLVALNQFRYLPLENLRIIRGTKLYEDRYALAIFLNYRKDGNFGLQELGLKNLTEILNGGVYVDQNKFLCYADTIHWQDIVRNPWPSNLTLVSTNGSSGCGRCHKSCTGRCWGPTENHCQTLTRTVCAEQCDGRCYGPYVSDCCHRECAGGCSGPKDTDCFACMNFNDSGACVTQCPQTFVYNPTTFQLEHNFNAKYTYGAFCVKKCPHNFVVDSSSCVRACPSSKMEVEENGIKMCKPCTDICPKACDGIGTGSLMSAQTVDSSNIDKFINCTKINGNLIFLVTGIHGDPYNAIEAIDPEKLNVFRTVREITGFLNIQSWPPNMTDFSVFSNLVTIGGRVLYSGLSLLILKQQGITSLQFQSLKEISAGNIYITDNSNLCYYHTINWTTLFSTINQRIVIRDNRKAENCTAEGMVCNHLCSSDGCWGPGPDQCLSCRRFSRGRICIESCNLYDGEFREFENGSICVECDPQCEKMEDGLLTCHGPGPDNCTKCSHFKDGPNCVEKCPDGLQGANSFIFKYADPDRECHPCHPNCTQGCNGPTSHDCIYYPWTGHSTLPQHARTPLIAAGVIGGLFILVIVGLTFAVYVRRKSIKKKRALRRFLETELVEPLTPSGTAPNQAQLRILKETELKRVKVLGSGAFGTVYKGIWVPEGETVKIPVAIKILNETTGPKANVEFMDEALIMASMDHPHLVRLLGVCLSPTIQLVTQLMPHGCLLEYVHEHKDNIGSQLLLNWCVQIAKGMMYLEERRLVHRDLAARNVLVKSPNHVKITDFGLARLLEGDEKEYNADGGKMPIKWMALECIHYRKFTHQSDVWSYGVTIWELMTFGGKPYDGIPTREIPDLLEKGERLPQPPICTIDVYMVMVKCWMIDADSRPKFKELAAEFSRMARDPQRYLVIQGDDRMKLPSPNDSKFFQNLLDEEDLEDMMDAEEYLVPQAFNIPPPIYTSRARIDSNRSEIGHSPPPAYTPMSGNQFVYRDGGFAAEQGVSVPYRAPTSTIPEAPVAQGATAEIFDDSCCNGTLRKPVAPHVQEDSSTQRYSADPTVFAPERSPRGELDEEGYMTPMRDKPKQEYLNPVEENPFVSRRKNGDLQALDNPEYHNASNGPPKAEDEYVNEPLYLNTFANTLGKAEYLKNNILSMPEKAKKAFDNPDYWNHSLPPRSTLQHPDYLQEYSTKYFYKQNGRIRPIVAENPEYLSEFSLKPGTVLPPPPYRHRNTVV
For assay [26], the system named is Hepatocyte growth factor receptor (Homo sapiens), P08581 [M1250T]. The assay can be described thus: Inhibition of T7 bacteriophage fused human MET M1250T mutant at 10 uM by KINOMEscan analysis relative to control; values are per cent of control.
Assay [27] concerns the target Mitogen-activated protein kinase 11 (Homo sapiens) (UniProt Q15759). The experiment in a line: Inhibition of T7 bacteriophage fused human p38-beta at 10 uM by KINOMEscan analysis relative to control; values are per cent of control.
Assay [28] concerns the target cAMP-dependent protein kinase catalytic subunit PRKX (Homo sapiens) (UniProt P51817). The assay can be described thus: Inhibition of T7 bacteriophage fused human PRKX at 10 uM by KINOMEscan analysis relative to control.
Assay [29] concerns the target Leucine-rich repeat serine/threonine-protein kinase 2 (Homo sapiens) (UniProt Q5S007). The assay can be described thus: Inhibition of wildtype GFP-tagged LRRK2 phosphorylation at Ser910 residue (unknown origin) transfected in HEK293 cells upto 3 uM incubated for 90 mins by immunoblot analysis. It is filed as cell-based.

Activity calls are given as the source filed them. No cut-off for these calls is given here.

Sequence of Serine/threonine-protein kinase Nek1 (Homo sapiens) (Q96PY6 whole entry, the tested form may be a part): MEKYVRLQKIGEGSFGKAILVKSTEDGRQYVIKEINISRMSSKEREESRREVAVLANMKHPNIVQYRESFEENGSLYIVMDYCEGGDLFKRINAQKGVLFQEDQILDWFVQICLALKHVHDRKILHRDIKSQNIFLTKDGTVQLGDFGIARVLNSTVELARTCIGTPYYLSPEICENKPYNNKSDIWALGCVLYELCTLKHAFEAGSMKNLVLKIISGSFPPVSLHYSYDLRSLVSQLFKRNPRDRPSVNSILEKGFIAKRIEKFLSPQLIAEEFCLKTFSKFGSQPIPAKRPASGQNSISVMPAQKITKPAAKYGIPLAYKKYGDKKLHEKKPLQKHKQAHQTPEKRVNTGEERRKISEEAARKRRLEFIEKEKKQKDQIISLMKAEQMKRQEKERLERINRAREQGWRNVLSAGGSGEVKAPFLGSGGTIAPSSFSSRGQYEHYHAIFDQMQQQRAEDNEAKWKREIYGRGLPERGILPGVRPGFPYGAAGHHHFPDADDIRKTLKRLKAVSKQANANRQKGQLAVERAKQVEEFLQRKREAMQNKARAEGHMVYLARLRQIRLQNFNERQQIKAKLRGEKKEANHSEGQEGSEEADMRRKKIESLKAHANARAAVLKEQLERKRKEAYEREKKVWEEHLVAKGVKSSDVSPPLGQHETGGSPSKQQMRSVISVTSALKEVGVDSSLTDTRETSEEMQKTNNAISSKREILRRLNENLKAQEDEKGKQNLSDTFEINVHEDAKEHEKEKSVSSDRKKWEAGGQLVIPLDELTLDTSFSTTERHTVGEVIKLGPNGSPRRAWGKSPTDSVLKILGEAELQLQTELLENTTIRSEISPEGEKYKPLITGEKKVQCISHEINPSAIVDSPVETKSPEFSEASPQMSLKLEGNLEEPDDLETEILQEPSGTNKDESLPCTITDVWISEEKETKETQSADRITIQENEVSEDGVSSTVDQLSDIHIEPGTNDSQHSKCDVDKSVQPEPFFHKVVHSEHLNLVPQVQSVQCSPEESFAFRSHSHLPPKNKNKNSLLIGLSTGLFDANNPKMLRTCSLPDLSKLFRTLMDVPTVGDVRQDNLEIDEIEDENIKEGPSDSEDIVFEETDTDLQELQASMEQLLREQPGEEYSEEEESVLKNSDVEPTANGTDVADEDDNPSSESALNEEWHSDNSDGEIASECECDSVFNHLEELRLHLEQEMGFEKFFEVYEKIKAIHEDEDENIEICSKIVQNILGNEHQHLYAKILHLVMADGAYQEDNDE

Consider `COc1cc(N2CCC(N3CCN(C)CC3)CC2)ccc1Nc1ncc2c(n1)N(C)c1ccccc1C(=O)N2C`, for which the inhibition was found to be 90% in assay [1]; 100% in assay [3]; 95% in assay [5]; 100% in assay [8]; 100% in assay [9]; 38% in assay [10]. For the same compound, the inhibition in assay [11] stood at 100%; in assay [12], 100%; in assay [15] it was 100%; in [16] it was 100%; in [17] it was 94%; in assay [18] it was 100%. The inhibition in assay [19] is 100%; in assay [20], 100%; in assay [22] it was 100%; in assay [23], 85%; in assay [24], 100%; in assay [25] it was 100%. The inhibition in assay [28] worked out at 99%. In addition, the residual activity amounted to 73% in assay [2]; 67% in assay [4]; 34% in assay [6]; 78% in [7]; 69% in [13]; 85% in assay [14]. Also, the residual activity in assay [21] was determined as 83%; in assay [26], 96%; in [27], 60%.
`CCOc1cc(C(=O)N2CCC(N3CCN(C)CC3)CC2)ccc1Nc1ncc2c(n1)N(C1CCCC1)c1ccccc1C(=O)N2C`: in [29], the inhibition result was “inactive”.

Values taken from ChEMBL document CHEMBL5678810.
